Assay results from patent US20120101077A1, “AGGLOMERATE FORMULATIONS USEFUL IN DRY POWDER INHALERS” (Schering Corporation, priority 2009, published 2012).
Like-named read-outs stand apart in the source and are kept apart here.

Tests used:
[1] = Particle size of micronized materials by HELOS laser diffraction; type: physicochemical; conditions: jet-milled micronized material
Protocol: Micronization of the drug and lactose were performed in-house using a jet-mill (Micron Master, The Jet Pulverizer Co., Inc, Moorestown, N.J.). […] Particle size measurements of the micronized materials were performed using a HELOS® (Sympatec Inc., Clausthal-Zellerfeld, Germany) laser diffraction system.

[2] = cited from earlier work
[3] = cited from earlier work; remark: listed apart in the source
[4] = Specific surface area of additional functional excipients; type: physicochemical

| average particle size (DV50) [1] [μm] | Molecule | partition coefficient between octanol and water [2] | solubility ([3]; in acetone) | solubility ([3]; in chloroform) | solubility ([3]; in ethanol) | solubility ([3]; in isopropanol) | solubility ([3]; in methanol) | solubility ([3]; in tetrahydrofuran) | solubility ([3]; in water) | specific surface area [4] [m^2/g] |
| --- | --- | --- | --- | --- | --- | --- | --- | --- | --- | --- |
| 1.1 | C[C@@H]1C[C@H]2[C@@H]3CCC4=CC(=O)C=C[C@]4(C)[C@@]3(Cl)[C@@H](O)C[C@]2(C)[C@@]1(OC(=O)c1ccco1)C(=O)CCl [Mometasone furoate, 9,21-Dichloro-11(beta), 17-dihydroxy-16(alpha)-methylpregna-1,4-diene-3,20-dione 17-(2 furoate)] | greater than 5000 | soluble | soluble | slightly soluble | slightly soluble | slightly soluble | freely soluble | practically insoluble | – |
| 2.0 | OC[C@H]1O[C@@H](O[C@H]2[C@H](O)[C@@H](O)[C@@H](O)O[C@@H]2CO)[C@H](O)[C@@H](O)[C@H]1O [micronized lactose, lactose anhydrous, NF] | – | – | – | – | – | – | – | – | – |
| – | magnesium stearate | – | – | – | – | – | – | – | – | 8 |
